For this experiment, the target named is T1, STING (Mus musculus, UniProt Q3TBT3).
T1 sequence (Q3TBT3 1-378): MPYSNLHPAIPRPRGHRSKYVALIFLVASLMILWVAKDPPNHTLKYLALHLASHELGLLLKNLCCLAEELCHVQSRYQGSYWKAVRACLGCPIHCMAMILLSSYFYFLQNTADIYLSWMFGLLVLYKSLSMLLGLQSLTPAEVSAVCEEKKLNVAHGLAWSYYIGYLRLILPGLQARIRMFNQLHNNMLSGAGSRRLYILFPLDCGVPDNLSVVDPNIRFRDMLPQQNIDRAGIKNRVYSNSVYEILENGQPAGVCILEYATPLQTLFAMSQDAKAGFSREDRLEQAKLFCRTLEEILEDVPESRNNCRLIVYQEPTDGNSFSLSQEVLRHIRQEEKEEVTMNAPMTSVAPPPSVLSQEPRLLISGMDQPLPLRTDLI
In words: Cytokine secretion (ELISA) from DMXAA-activated splenocytes. It is filed as cell-based, C57BL/6 mice. Further details: Splenocytes were recovered from C57BL/6 WT female mice; endogenous in cells; host or cells: primary splenocytes of C57BL/6 mice. The method, then:
FIGS. 1A-1B include bar graphs showing that Cluster 1 and 9 inhibit tumor necrosis factor alpha (TNFα) while only cluster 1 promotes IL-10 secretion from resting splenocytes activated by the selective STING agonist DMXAA. Splenocytes were recovered from C57BL/6 WT or STING^−/− female mice and were incubated (1×10^6 cells in 0.5 mL of culture media) overnight with a premade mixture of the individual compounds in each cluster (5-500 nM) or vehicle, and DMXAA (10 μM). Next, culture supernatants were collected and TNFα(1A) or IL-10 (1B) levels were determined by standard enzyme-linked immunosorbent assay ELISA (Biolegend).
FIGS. 2A-2D include graphs showing that compounds 5.9 and 7.9 inhibit TNFα and IL-10 secretion from DMXAA-activated splenocytes. Splenocytes were recovered from C57BL/6 WT female mice and incubated (1×10^6 cells in 0.5 mL of culture media) overnight with the individual compounds from cluster 9 (50-5,000 nM) or vehicle and DMXAA (5-10 μM; 2A-2B) or at 5,000 nM without DMXAA (2C-2D). Next, culture supernatants were collected and TNFα (2A, and 2C) or IL-10 (2B, and 2D) levels were determined by standard ELISA. In 2A-2B, black horizontal line indicates secretion level from vehicle-treated cells.
FIGS. 3A-3H include graphs and an image showing that compounds 2.1, 4.1, and 6.1 inhibit TNFα but promote IL-10 and IFN-beta secretion from DMXAA-activated splenocytes. Splenocytes were recovered from C57BL/6 WT female mice and incubated (1×10^6 cells in 0.5 mL of culture media) overnight with the individual compounds from cluster 1 (50-5,000 nM) or vehicle and DMXAA (10 μM; 3A, 3C, and 3E) or at 5,000 nM without DMXAA (3B, 3D, and 3F). Next, culture supernatants were collected and TNFα (3A-3B), IL-10 (3C-3D), or IFN-beta (3E-3F) levels were determined by standard ELISA. In 3A, 3C, and 3E, black horizontal line indicates secretion level from vehicle-treated cells. (3G-3H) Biased STING agonists (BiSTs) enhance DMXAA-induced STING signaling. Splenocytes were treated with 25 μg/ml DMXAA and 50 nM of compound 2.1 for 1-4 hr (3G). Then, the cells were analyzed by immunoblotting for phosphorylated STING, TBK-1, IRF3, and NF-kB, or their unphosphorylated controls, or actin as a loading control. Densitometry analysis for phosphorylated STING (p-STING) and STING proteins (3H) is also shown. Results are representative (3G) or mean±SEM (3H) from 3 repeats. One-way ANOVA, and Tukey HSD test *P<0.05.
Splenocytes were isolated from the spleens of unchallenged C57BL/6 WT or STING-KO mice by meshing against a grid. Peritoneal macrophages were isolated from mice undergoing peritonitis for 66 hr by washing with 5 ml PBS. The cellular exudate was stained with phycoerythrin (PE)-conjugated anti-F4/80 antibodies (bioLegend, CA, USA) and macrophages were isolated using magnetic beads (STEMCELL Technologies Inc, Vancouver, Canada). Isolated splenocytes or macrophages (0.5-1×10^6 cells per well) were incubated with 50-5,000 nM of individual substances or pooled clusters thereof. Then, the cells were treated with vehicle or 5-10 μM DMXAA (Cayman Chemical, MI, USA) to activate STING. After 24 hr, culture supernatants were collected and evaluated for levels of: TNFα, IFN-β and/or IL-10 using, standard ELISA (BioLegend, CA, USA).
To test which cluster(s) included compounds that modulate STING-mediated cytokine production, wild-type (WT) or STING knockout (−/−) splenocytes were incubated with the selective murine STING agonist DMXAA alone or with 5-500 nM of the pooled individual compounds in each cluster as indicated.
Next, the individual compounds in clusters 1 and 9 were tested at 50-5,000 nM. The first experiment was performed in resting splenocytes as detailed above.

Setting [1] is: individual compounds 50-5,000 nM + DMXAA 5-10 μM, overnight.

The results in this text go back to US20250302798A1, “STING INHIBITORS AND USE THEREOF” (CARMEL HAIFA UNIVERSITY ECONOMIC CORPORATION LTD., priority 2022, published 2025).

Structures are written as SMILES. “Also recorded” adds a separate entry of the source.

On to `c1ccc(CSc2nnc(CCCCCCCCc3nnc(SCc4ccccc4)o3)o2)cc1` [Compound 2.1, 2-(benzylsulfanyl)-5-{8-[5-(benzylsulfanyl)-1,3,4-oxadiazol-2-yl]octyl}-1,3,4-oxadiazole], for which, where the note is “at 5,000 nM, resting splenocytes”, the “STING inhibition (ranking)” value is listed as “Best STING Inhibitors”. Moreover, the IFN-beta secretion entry (individual compounds 50-5,000 nM + DMXAA 10 μM, overnight) is on record as “most potent inducer; also recorded: promote”. Further, under setting [1], the IL-10 secretion result is “most potent inducer; also recorded: promote” and the TNFα secretion result is listed as “doing so at lower concentrations; also recorded: inhibit”. The “Mode of action on STING (overall)” value (summary over various cell types, DMXAA stimulation) is recorded as “biased agonists”.
